In patent US5849494A, “Methods for sensitive detection of reverse transcriptase” (priority 1996, dated 1998):

Legend:
RT of group M viruses = RT of group M viruses (HIV-1 M:B_HXB2R, UniProt P04585); settings: nevirapine at 100 μM; 21 group M reference isolates of A through F subtypes; culture supernatants
Description: (§1) To measure the sensitivity of group M and group O viruses to nevirapine (Boehringer Mannheim), the Amp-RT assay as described herein was used to measure the enzymatic activity of RT of these viruses in the presence or absence of the drug. Ten microliters of culture supernatants were added to 40 μl of RT buffer containing 10 ng of RNA template, 10 units of Rnasin (Promega, Wis.), 0.06% NP-40, 100 ng of the antisense primer EMCR2 (SEQ ID NO:2), 0.8 mM EGTA, 2 mM dithiothreitol, 50 mM Tris-HCl, 10 mM MgCl2 and 200 μM of each dNTP with or without 100 μM of nevirapine. The reaction was incubated at 37° C. for one hour and heated at 95° C. for ten minutes. The products of the RT reaction were PCR amplified for 35 cycles at 95° C. for one minute, 55° C. for one minute and 72° C. for one minute after the addition of 50 μl of PCR buffer containing 2.5 units of Taq polymerase, 100 ng of sense primer EMCF1': 5'[…]3' (SEQ ID NO:10). Twenty microliters of the reaction product was electrophoresed in 1.8% agarose gels and Southern blot hybridized to ^32 P-end labeled internal probe EMCP1 (SEQ ID NO:3). For qualitative detection, blots were exposed on autoradiographic film for 12-16 hours. For quantitative detection, blots were exposed for 3-6 hours and their radioactivities were read and measured by a Phosphor Imager (Model # 400E, Molecular Dynamics, Inc., CA). […]

[1] = molecular target: T1, RT of group O reference isolate MVP5180 (Human immunodeficiency virus type 1 group O, UniProt Q79666); experiment: Amp-RT assay of RT activity of HIV-1 group O isolate with or without nevirapine; type: biochemical; settings: nevirapine at 100 μM, culture supernatant
T1 construct: measure the enzymatic activity of RT of these viruses
Description: as §1

RT in group M sera = RT in group M sera (HIV-1 M:B_HXB2R, UniProt P04585); settings: 10 group M-infected persons; unprocessed 2 μl serum samples
Description: (§2) Plasma samples from 55 HIV-1 infected persons, ten seroconversion panels and 100 uninfected controls were studied. Two micoliter volumes of unprocessed plasma were tested in duplicate by the Amp-RT protocol as described above. The viral load was determined from a standard curve generated by known numbers of recombinant HIV-1 RT molecules and was expressed as equivalents of recombinant RT (rRT) molecules/ml. For comparison, RNA virus loads were also determined by the NASBA commercial assay (Organon).
(§3) To measure the sensitivity of group M and group O viruses to nevirapine (Boehringer Mannheim), the Amp-RT assay as described herein was used to measure the enzymatic activity of RT of these viruses in the presence or absence of the drug. Ten microliters of culture supernatants were added to 40 μl of RT buffer containing 10 ng of RNA template, 10 units of Rnasin (Promega, Wis.), 0.06% NP-40, 100 ng of the antisense primer EMCR2 (SEQ ID NO:2), 0.8 mM EGTA, 2 mM dithiothreitol, 50 mM Tris-HCl, 10 mM MgCl2 and 200 μM of each dNTP with or without 100 μM of nevirapine. […] For quantitative detection, blots were exposed for 3-6 hours and their radioactivities were read and measured by a Phosphor Imager (Model # 400E, Molecular Dynamics, Inc., CA). […]
(§4) Applicability to serum screening was evaluated in 10 group O-infected and 10 group M-infected persons.

RT in group O sera = molecular target: T2, RT in group O sera (HIV-1 O_MVP5180, UniProt Q79666); experiment: Direct Amp-RT assay of sera from group O-infected persons with or without nevirapine; type: biochemical, HIV-1 group O; settings: 10 group O-infected persons; unprocessed 2 μl serum samples
T2 construct: Amp-RT with EMCV RNA template
Description: as §2, §3, §4

Cc1ccnc2c1NC(=O)c1cccnc1N2C1CC1 [nevirapine]
Effect on Amp-RT activity of group M reference isolates (RT of group M viruses): inhibit | Sensitivity of group O reference isolate to nevirapine (Amp-RT) [1]: resistant | Amp-RT result of group M sera with nevirapine (RT in group M sera): positive only in the absence of nevirapine | Amp-RT result of group O sera with nevirapine (RT in group O sera): Amp-RT positive in the presence and absence of nevirapine
